From PubChem BioAssay AID1194 (EPA DSSTox, 2008) come the findings set out here.

For the series, the system named is Salmonella typhimurium Ames mutagenicity, literature compiled. The series is described as follows: DSSTox (CPDBAS) Carcinogenic Potency Database Salmonella Mutagenicity. An excerpt: The Carcinogenic Potency Database (CPDB) is a unique and widely used international resource of the results of over 6500 chronic, long-term animal cancer tests on over 1500 chemical substances. The CPDB provides easy access to the bioassay literature, with qualitative and quantitative analyses of both positive and negative experiments that have been published over the past 50 years in the general literature and by the National Cancer Institute/National Toxicology Program. The CPDB standardizes the diverse literature of cancer bioassays that vary widely in protocol, histopathological examination and nomenclature, and in the published author's choices of what information to provide in their papers. Results are reported in the CPDB for tests in rats, mice, hamsters, dogs, and nonhuman primates, and are based on the most positive result among all experiments for each sex-species. The DSSTox CPDBAS (all species) file incorporates data from the CPDB Summary Tables for the full list of over 1500 chemical substances tested in at least one species.
A chemical is classified within the CPDB as mutagenic, i.e. "active", in the Salmonella assay if it was evaluated overall as either "mutagenic" or "weakly mutagenic" by Zeiger [Zeiger, E. (1997) Genotoxicity Database. In: Gold and Zeiger, Eds. Handbook of Carcinogenic Potency and Genotoxicity Databases. Boca Raton, FL: CRC Press, pp. 687-729. http://potency.berkeley.edu/CRCbook.html] or as overall "positive" by the EPA Gene-Tox Program [Kier et al. (1986) Mutat. Res. 168: 69-240].

Calls of active or inactive are those of the source.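 The calls were made as follows: active = chemicals rated mutagenic or weakly mutagenic in the Salmonella bacterial test by one literature review, or positive overall by another; inconclusive = no clear call, values can overlap the other calls; inactive = the rest.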

Regarding `Cc1cc(C)nc(NS(=O)(=O)c2ccc(N)cc2)n1`, the outcome was inactive. The entry for `C[C@H](CCC(=O)O)[C@H]1CC[C@H]2[C@@H]3CC[C@@H]4C[C@H](O)CC[C@]4(C)[C@H]3CC[C@]12C` is “inactive”; for `O=C1CCO1` it is “active”; for `OCC(CO)(CBr)CBr` it is “active”. In the case of `CN1CCCC1=O` it was “inactive; active”; in that of `O=c1[nH]cc(F)c(=O)[nH]1`, “inactive; active”; in that of `ClC(Cl)=C(Cl)Cl`, “inactive; active”. In the case of `Nc1nc(-c2ccc([N+](=O)[O-])o2)cs1` it was “active”; in that of `CCCCNC(=O)NS(=O)(=O)c1ccc(C)cc1`, “inactive; active”.

As for `Cc1c(N)nc(C)c2c1[nH]c1ccccc12`, the outcome was active. In the case of `CNC(=O)O/N=C/C(C)(C)SC` it was “inactive”; in that of `O=c1ccc2ccccc2o1`, “active; inactive”; in that of `NN`, “active; inactive”. In the case of `O=[N+]([O-])c1cccc2ccccc12` it was “active”; in that of `O=C(O)[C@@H]1[C@H](C(=O)O)[C@@]2(Cl)C(Cl)=C(Cl)[C@]1(Cl)C2(Cl)Cl`, “inactive; active”; in that of `c1ccc2[nH]c(-c3cscn3)nc2c1`, “active”.

With `C=CCc1ccc2c(c1)OCO2`, the outcome is “inactive; active”. In the case of `O=C(O)c1[nH]n(-c2ccc(S(=O)(=O)O)cc2)c(=O)c1N=Nc1ccc(S(=O)(=O)O)cc1` it was “inactive; active”; in that of `CC(COc1ccccc1)N(CCCl)Cc1ccccc1` (stereo unspecified), “active; inactive”; in that of `ClCC1CO1` (stereo unspecified), “active; inactive”.

On to `CC1CN(N=O)CC(C)N1N=O` (stereo unspecified), for which the result was active. The entry for `[O-][Br+2]([O-])O` is “active”; for `ClC1C(Cl)C(Cl)C(Cl)C(Cl)C1Cl` (stereo unspecified) it is “inactive; active”. The entry for `CCC(C)c1cc([N+](=O)[O-])cc([N+](=O)[O-])c1O` (stereo unspecified) is “inactive”. In the case of `Nc1ncn([C@@H]2O[C@H](CO)[C@@H](O)[C@H]2O)c(=O)n1` it was “active”; in that of `Nc1cccc2c(N)cccc12`, “active”; in that of `FC(F)OC(F)(F)C(F)Cl` (stereo unspecified), “inactive; active”. As for `NC(N)=O`, the outcome was “inactive; active”. In the case of `Nc1cc([N+](=O)[O-])ccc1C(=O)O` it was “active”. The entry for `C/C=C1/C[C@@H](C)[C@](O)(CO)C(=O)OCC2=CCN3CC[C@@H](OC1=O)[C@@H]23` is “active; inactive”; for `Cl/C=C/CCl` it is “active; inactive”; for `CC1(C)S[C@@H]2[C@H](NC(=O)COc3ccccc3)C(=O)N2[C@H]1C(=O)O` it is “inactive; active”. In the case of `O=C1C2(Cl)C3(Cl)C4(Cl)C(Cl)(Cl)C5(Cl)C3(Cl)C1(Cl)C5(Cl)C24Cl` (stereo unspecified) it was “inactive; active”. As for `O=NN1CCOCC1`, the outcome was active. Take `[Cl-].[Cl-].[Hg+2]`: the outcome is “inactive; active”. In the case of `CCN(CC)C(=O)c1cccc(C)c1` it was “inactive; active”; in that of `CCC1(c2ccccc2)C(=O)N=C(O)NC1=O` (stereo unspecified), “inactive”. The entry for `C=CC(=C)C` is “inactive”. The entry for `O=P(O)(O)O` is “active; inactive”; for `NC(=O)N(CCO)N=O` it is “active”; for `c1ccc2c(c1)Oc1ccccc1O2` it is “inactive”. On to `COc1cc(/C=C/C(=O)CC(=O)/C=C/c2ccc(O)c(OC)c2)ccc1O`, for which the result was inactive.

With `O=c1oc2c(O)c(O)cc3c(=O)oc4c(O)c(O)cc1c4c23`, the outcome was inactive.

`CC1=NN(c2ccccc2)C(=O)C1`: the outcome was inactive. The entry for `c1ccc(Nc2ccc(Nc3ccccc3)cc2)cc1` is “active; inactive”. Turning to `Cc1ccc(NC(N)=O)cc1`, the outcome is “inactive; active”. The entry for `CCCNC(=O)NS(=O)(=O)c1ccc(Cl)cc1` is “inactive; active”; for `CC1CN(N=O)C(=O)NC1=O` (stereo unspecified) it is “active”. In the case of `COc1ccccc1[N+](=O)[O-]` it was “active”; in that of `O=NN1CCCN(N=O)CC1`, “active”. Take `Cc1cc(O)c2c(c1)C(=O)c1cc(O)cc(O)c1C2=O`: the result was active. The entry for `Cc1cc(=O)[nH]c(=S)[nH]1` is “inactive”.

As for `ClCC(Br)CBr` (stereo unspecified), the outcome is “active; inactive”. In the case of `CCCCC(CC)COP(=O)(OCC(CC)CCCC)OCC(CC)CCCC` (stereo unspecified) it was “inactive; active”; in that of `CCNc1nc(Cl)nc(NCC)n1`, “inactive”. In the case of `CC(C)=CCl`, the outcome was “active; inactive”. In the case of `C=O` it was “active; inactive”. In the case of `CCc1ccccc1` it was “inactive”; in that of `COc1cc2c(c3oc(=O)c4c(c13)CC[C@H]4O)[C@@H]1C=CO[C@H]1O2`, “active”; in that of `O=[N+]([O-])c1ccc2ncccc2c1`, “active”. With `CCC1(c2ccccc2)C(=O)NC(=O)NC1=O`, the outcome was active. In the case of `Nc1ccc2cc3ccc(N)cc3nc2c1` it was “active”. In the case of `CCOC(N)=O` it was “active; inactive”. Regarding `BrC(Br)Br`, the outcome was active. The entry for `COc1ccc(N)c(OC)c1` is “active; inactive”; for `CCCOC(=O)c1cc(O)c(O)c(O)c1` it is “inactive”. In the case of `C/C=N/O` it was “inactive”; in that of `Nc1cc(S(=O)(=O)O)cc2cc(S(=O)(=O)O)c(N=Nc3ccc(-c4ccc(N=Nc5c(S(=O)(=O)O)cc6cc(S(=O)(=O)O)cc(N)c6c5O)cc4)cc3)c(O)c12`, “active”; in that of `OCCOCCO`, “inactive; active”. `c1ccc2n[nH]nc2c1`: the outcome was “active; inactive”. For the compound `OC(c1ccc(Cl)cc1)(c1ccc(Cl)cc1)C(Cl)(Cl)Cl`, the outcome is “inactive; active”. The entry for `[Na+]` is “inactive”; for `Nc1c(Br)cc(Br)c2c1C(=O)c1ccccc1C2=O` it is “active”; for `N#Cc1c(Cl)c(Cl)c(Cl)c(C#N)c1Cl` it is “inactive”. The entry for `S=C(NC1CCCCC1)NC1CCCCC1` is “inactive; active”; for `Cc1ccc2cc3c(ccc4ccccc43)c3c2c1CC3` it is “active”; for `Nc1ccc2nc3ccccn3c2n1` it is “active”. `CCCCOC(=O)c1ccc(O)cc1`: the outcome was “inactive; active”. In the case of `c1ccc2c(c1)Nc1ccccc1S2` it was “inactive”; in that of `CCC(O)OC(O)CC` (stereo unspecified), “inactive; active”; in that of `Nc1ccc2c(n1)[nH]c1ccccc12`, “active”. The entry for `CCCCCCN(N=O)C(N)=O` is “active”. In the case of `O=[N+]([O-])c1ccc(-c2nc(N(CCO)CCO)c3ccccc3n2)s1` it was “inactive; active”; in that of `CN(C)c1ccc(C(=N)c2ccc(N(C)C)cc2)cc1`, “active”; in that of `CCc1ccc(C(c2ccc(CC)cc2)C(Cl)Cl)cc1`, “active”.

Take `CCCCCC(N)=O`: the outcome was “inactive; active”. In the case of `O=C1C(c2[nH]c3ccc(S(=O)(=O)O)cc3c2O)=Nc2ccc(S(=O)(=O)O)cc21` it was “inactive”; in that of `CN(C)N=O`, “active”; in that of `CCCN(CCC)S(=O)(=O)c1ccc(C(=O)O)cc1`, “inactive; active”. For `Nc1ccc(-c2ccc(N)cc2)cc1`, the outcome was active. As for `Cc1ccc(N)cc1Cl`, the outcome was “inactive; active”. In the case of `OCCN(CCO)CCO` it was “inactive; active”; in that of `COc1cc2c(c3oc(=O)c4c(c13)CCC4=O)C1C=COC1O2` (stereo unspecified), “active”; in that of `CC(N)=S`, “inactive; active”. As for `O=S(=O)(O)c1cc(S(=O)(=O)O)c2c(N=Nc3ccccc3)c(O)ccc2c1`, the outcome was “inactive; active”. In the case of `BrCCBr` it was “active”. The entry for `O=[N+]([O-])c1ccc(Cl)cc1` is “active”; for `OC[P+](CO)(CO)CO` it is “inactive; active”. As to `ClC1C2(Cl)C3C4C5OC5C5C4C1(Cl)C(Cl)(C53)C2(Cl)Cl` (stereo unspecified), the result was active. Turning to `Cc1cc(N=Nc2ccccc2C)ccc1N`, the result was active. In the case of `O` it was “inactive”; in that of `[O-]/[N+](=N\O)c1ccccc1`, “active; inactive”. For `OCc1ccccc1`, the result was inactive. In the case of `CC1=C(/C=C/C(C)=C/C=C/C(C)=C/C=C/C=C(C)/C=C/C=C(C)/C=C/C2=C(C)CCCC2(C)C)C(C)(C)CCC1` it was “active; inactive”. In the case of `O=P1(NCCCl)OCCCN1CCCl` (stereo unspecified) it was “active; inactive”; in that of `C=CC(O)c1ccc(OC)cc1` (stereo unspecified), “inactive; active”.
